This note sets out measurements from US11628169B2, “Therapeutic drug for motor complications in Parkinson's disease” (Sumitomo Pharma Co., Ltd., priority 2020, dated 2023).

Data set [1] concerns PD-LID rat model. As to the kind of experiment: ON score and ON time without dyskinesia in PD-LID rat model. The format is in vivo. To be noted: for total ON score (Locomotive behavior) in 3 hours: levodopa 5 min later. The procedure:
To make a PD-LID rat model, a mixture of levodopa methyl ester hydrochloride (6 mg/kg; Sigma-Aldrich) dissolved in saline and benserazide hydrochloride (15 mg/kg; Sigma-Aldrich) (hereinafter, also referred to as “levodopa containing solution”) was intraperitoneally administered once daily to 6-OHDA-lesioned rats. The levodopa containing solution was repeatedly administered for 3 weeks or longer to observe and evaluate the behavior. The behavior was observed and evaluated in a transparent acrylic cage for 1 minute every 20 minutes after 20 minutes from the intraperitoneal administration of the levodopa containing solution, up until after 3 hours from administration. […] Individuals with a total AIMs score of less than 10 were excluded from the test as not manifesting a dyskinesia-like symptom. The behavior was observed and evaluated before the drug evaluation date. […] For an indicator of dyskinesia behavior, the sum of the Limb AIMs, Axial AIMs, and Orolingual AIMs at each evaluation point was used as the AIMs score. For the rotational behavior (ON score), Locomotive behavior at each evaluation point was used as an indicator. […] For ON time without dyskinesia, the period during which the AIMs score is 0 and Locomotive behavior is 1 or greater at each evaluation point was added. Duration of action of levodopa without a dyskinesia symptom (ON time without dyskinesia) refers to the aggregate time with no dyskinesia during the antiparkinsonian action effective time, i.e., “ON-time”, and defined as the time during which the dyskinesia symptom (AIMs) score is 0 and the rotational behavior (Locomotive behavior) score is 1 or greater at each evaluation point after levodopa administration. […] After 5 minutes, a levodopa containing solution was intraperitoneally administered, and the behavior was observed and evaluated. The results in the drawings are indicated in terms of mean value±standard error. […] For evaluation of a tape agent, the abdominal regions of the rats were shaved prior to the evaluation date. […] After 4 hours from application, a levodopa containing solution was intraperitoneally administered to observe and evaluation the behavior. The results in the drawings are indicated in terms of mean value±standard error. Individuals with 50% or more of the tape agent coming off during the test were excluded from analysis.

The nature of data set [2]: Plasma tandospirone concentration after observation of behavior in PD-LID rats. The format is in vivo, rat. As to conditions: continuous subcutaneous infusion 60 mg/mL (mean 0.78 mg/kg/hour as citrate). The procedure: 50 μL of rat plasma sample was fractionated into a polypropylene microtube. 50 μL of methanol (50 μL of standard solution for calibration curve sample) and 200 μL of internal standard solution (Bezafibrate methanol solution: 200 nmol/L, 200 μL of methanol for blank sample) are added and stirred for about 10 seconds with a mixer. This is centrifuged (4° C., 4500 rpm, 10 min), and then the supernatant is subjected to vacuum filtration using a filter (FastRemover MF 0.2 μm). 70 μL of aqueous 10 mmol/L ammonium acetate solution is added to 70 μL of the resulting filtrate and stirred for about 10 seconds with a mixer to prepare a measurement sample.
When evaluating a tape agent, the hair on the abdominal region of rats was shaved before the evaluation date. The tape agent of formulation 2 was applied to the abdominal regions of rats on the evaluation date at 60 cm^2/kg (37 mg/kg). After 4 hours from application, a levodopa containing solution was intraperitoneally administered to observe and evaluate the behavior. Individuals with 50% or more of the tape agent coming off during the test were excluded from analysis. […]
After 4 hours, a levodopa containing solution was administered to observe and evaluate the behavior (day 0 of implanting the pump). […] The behavior was also observed and evaluated on day 13 of implanting the pump.

Data set [3] has as its system PD-LID rat model. As to the kind of experiment: Dyskinesia-like symptom (AIMs) score in PD-LID rat model. It counts as in vivo.
Another data set concerns 6-OHDA-lesioned rats. As to the kind of experiment: Prevention/suppression of dyskinesia-like symptoms during repeated levodopa administration. It counts as in vivo, rat. To be noted: vs solvent group; for increase in total AIMs score associated with repeated administration of levodopa: days 3, 5, 9, 15. On the procedure: The prepared solution was used after injection into an ALZET® Osmotic Pump MODEL 2ML2 (4.53 μL/hour; DURECT).
6-OHDA-lesioned rats were assigned to each administration group using the number of apomorphine hydrochloride hemihydrate induced rotations and body weight as indicators. […] The osmotic pump implanted subcutaneously was retrieved after the observation and evaluation of behavior on day 15. The behavior was also observed and evaluated on the following day (day 16 of repeated administration of levodopa).
The test results were statistically analyzed by comparison with the solvent administration group using Steel test with the total AIMs score on day 16 of repeated levodopa administration as the parameter. * indicates p<0.05 and ** indicates p<0.01, meaning that there is a significant difference compared to the solvent administration group.

[4] abbreviates: oral 67 mg/kg as free form (100 mg/kg as citrate).

“Also recorded” adds a separate entry of the source.

tandospirone citrate: the “(iii) Duration of action of levodopa without dyskinesia symptom (ON time without dyskinesia)” value is on record as “increase in ON time without dyskinesia” with PD-LID rat model [1] (oral 20 mg/kg as free form (30 mg/kg as citrate), vs solvent group) and “significant prolongation in the ON-time without dyskinesia; also recorded: increase in ON time without dyskinesia” in the data set on PD-LID rat model [1] (oral 67 mg/kg as free form (100 mg/kg as citrate), prolongation vs solvent group). For the same substance, the “total ON score (Locomotive behavior) in 3 hours” value in the data set on PD-LID rat model [1] (oral 30 mg/kg as citrate, vs solvent group) is given as “increase in the total ON score”; with PD-LID rat model [1] (oral 100 mg/kg as citrate, vs solvent group), “increase in the total ON score”. Further, the “mean value of the plasma tandospirone concentrations (value converted in terms of free form)” value stood at 281 ng/mL in data set [2] (day 0 of implanting the pump) and 143 ng/mL in data set [2] (day 13 of implanting the pump). For the same substance, in the data set on PD-LID rat model [3] (continuous subcutaneous infusion 60 mg/mL (mean 0.78 mg/kg/hour), day 13 of implanting the pump, vs solvent group), the “dyskinesia-like symptoms (total AIMs score in 3 hours)” value was “significant improvement in dyskinesia-like symptoms”. Moreover, the “(i) Degree of improvement in indicator of dyskinesia symptom (total AIMs score in 3 hours, solvent minus tandospirone group)” value in the data set with PD-LID rat model [3] (oral 6.7 mg/kg as free form (10 mg/kg as citrate)), with PD-LID rat model [3] (oral 20 mg/kg as free form (30 mg/kg as citrate)) and in the data set with PD-LID rat model [3] (setting [4]) was “significant change in the total AIMs score was not observed” in each case. Further, the “(ii) Indicator of rebound symptom of dyskinesia (total dyskinesia-like symptom score in 100 to 180 minutes, solvent minus tandospirone group)” value in the data set on PD-LID rat model [3] (oral 20 mg/kg as free form (30 mg/kg as citrate), experiment printed as (FIG. 7)) is “significant increase in the total AIMs score”; in the data set on PD-LID rat model [3] (oral 20 mg/kg as free form (30 mg/kg as citrate), experiment printed as (FIGS. 8A-8B)), “significant increase in the total AIMs score”; in the data set on PD-LID rat model [3] (setting [4]) it was “significant increase in the total AIMs score”. In addition, the “increase in total AIMs score associated with repeated administration of levodopa” value in the data set with 6-OHDA-lesioned rats (continuous subcutaneous infusion 30 mg/mL (mean of 0.41 mg/kg/hour)) and in the data set on 6-OHDA-lesioned rats (continuous subcutaneous infusion 60 mg/mL (mean of 0.83 mg/kg/hour)) was “suppressed the increase in total AIMs score” in each case. Moreover, the “total AIMs score on the day after completion of administration (day 16)” value in the data set on 6-OHDA-lesioned rats (continuous subcutaneous infusion 30 mg/mL or 60 mg/mL, pump retrieved day 15) is recorded as “significantly lower”.
